The target in assay [1] is T1, human EP1 receptor (Homo sapiens, UniProt P34995).
T1 construct: expressed in transfected cells; host or cells: CHO-K1
T1 sequence (P34995 1-402): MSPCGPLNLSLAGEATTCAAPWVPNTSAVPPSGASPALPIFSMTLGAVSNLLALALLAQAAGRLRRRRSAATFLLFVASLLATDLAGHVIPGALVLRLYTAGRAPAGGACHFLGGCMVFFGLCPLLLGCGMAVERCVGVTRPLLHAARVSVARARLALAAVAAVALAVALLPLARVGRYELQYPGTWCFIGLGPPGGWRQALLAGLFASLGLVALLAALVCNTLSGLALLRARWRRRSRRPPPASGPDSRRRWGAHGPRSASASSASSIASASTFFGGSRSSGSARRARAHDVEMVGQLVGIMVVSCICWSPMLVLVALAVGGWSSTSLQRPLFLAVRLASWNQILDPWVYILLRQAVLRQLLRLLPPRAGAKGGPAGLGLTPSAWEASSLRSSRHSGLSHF
The assay can be described thus: Binding assay for the human prostanoid EP1 receptor (competition with [3H]-PGE2). The note with it: binding to human EP1 receptor, CHO-K1 membranes, [3H]-PGE2 3 nM; averages of a number of experiments. On the procedure:
Competition assay using [^3H]-PGE2.
Compound potencies are determined using a radioligand binding assay. In this assay compound potencies are determined from their ability to compete with tritiated prostaglandin E2 ([^3H]-PGE2) for binding to the human EP1 receptor. This assay utilises Chinese hamster ovary-K1 (CHO-K1) cells into which a stable vector containing the EP1 cDNA has previously been transfected. Cells are cultured in suitable flasks containing culture medium such as DMEM:F-12 supplemented with 10% v/v foetal calf serum, 2 mM L-glutamine, 0.25 mg/ml geneticin, 10 μg/ml puromycin and 10 μM indomethacin.
Cells are detached from the culture flasks by incubation in calcium and magnesium free phosphate buffered saline containing 1 mM disodium ethylenediaminetetraacetic acid (Na2EDTA) and 10 μM indomethacin for 5 min. The cells are isolated by centrifugation at 250×g for 5 mins and suspended in an ice cold buffer such as 50 mM Tris, 1 mM Na2EDTA, 140 mM NaCl, 10 μM indomethacin (pH 7.4). The cells are homogenised using a Polytron tissue disrupter (2×10 s burst at full setting), centrifuged at 48,000×g for 20 mins and the pellet containing the membrane fraction is washed (optional) three times by suspension and centrifugation at 48,000×g for 20 mins. The final membrane pellet is suspended in an assay buffer such as 10 mM 2-[N-morpholino]ethanesulphonic acid, 1 mM Na2EDTA, 10 mM MgCl2 (pH 6). Aliquots are frozen at −80° C. until required.
For the binding assay the cell membranes, competing compounds and [^3H]-PGE2 (3 nM final assay concentration) are incubated in a final volume of 100 μl for 30 min at 30° C. All reagents are prepared in assay buffer. Reactions are terminated by rapid vacuum filtration over GF/B filters using a Brandell cell harvester. The filters are washed with ice cold assay buffer, dried and the radioactivity retained on the filters is measured by liquid scintillation counting in Packard TopCount scintillation counter.
The data are analysed using non linear curve fitting techniques to determine the concentration of compound producing 50% inhibition of specific binding (IC50).

Assay [2] deals with T1, human EP1 receptor. Briefly: human EP1 calcium mobilisation assay. Format: cell-based. Conditions: human EP1, CHO-K1 cells, PGE2-induced calcium mobilisation; averages of a number of experiments; read-out: functional pKi (converted). On the procedure: Briefly, the antagonist properties of compounds are assessed by their ability to inhibit the mobilisation of intracellular calcium ([Ca^2+]i) in response to activation of EP1 or EP3 receptors by the natural agonist hormone prostaglandin E2 (PGE2). Increasing concentrations of antagonist reduce the amount of calcium that a given concentration of PGE2 can mobilise. The net effect is to displace the PGE2 concentration-effect curve to higher concentrations of PGE2. The amount of calcium produced is assessed using a calcium-sensitive fluorescent dye such as Fluo-4, AM and a suitable instrument such as a Fluorimetric Imaging Plate Reader (FLIPR). Increasing amounts of [Ca^2+]i produced by receptor activation increase the amount of fluorescence produced by the dye and give rise to an increasing signal. The signal may be detected using the FLIPR instrument and the data generated may be analysed with suitable curve-fitting software.
The human EP1 or EP3 calcium mobilisation assay (hereafter referred to as ‘the calcium assay’) utilises Chinese hamster ovary-K1 (CHO-K1) cells into which a stable (pCIN; BioTechniques 20 (1996): 102-110) vector containing either EP1 or EP3 cDNA has previously been transfected. Cells are cultured in suitable flasks containing culture medium such as DMEM:F-12 supplemented with 10% v/v foetal calf serum, 2 mM L-glutamine, 0.25 mg/ml geneticin, 100 μM flurbiprofen and 10 μg/ml puromycin.
For assay, cells are harvested using a proprietary reagent that dislodges cells such as Versene. Cells are re-suspended in a suitable quantity of fresh culture media for introduction into a 384-well plate. Following incubation for 24 hours at 37° C. the culture media is replaced with a medium containing Fluo-4 and the detergent pluronic acid, and a further incubation takes place. Concentrations of compounds are then added to the plate in order to construct concentration-effect curves. This may be performed on the FLIPR in order to assess the agonist properties of the compounds. Concentrations of PGE2 are then added to the plate in order to assess the antagonist properties of the compounds.
The data so generated may be analysed by means of a computerised curve-fitting routine. The concentration of compound that elicits a half-maximal inhibition of the calcium mobilisation induced by PGE2 (pIC50) may then be estimated.
A general note: Calcium assays in cells follow changes in intracellular calcium, usually with a dye or a luminescent sensor.

Where a name gives a salt, the structure may show the parent alone.

What is called IC50 is the point on the concentration scale where inhibition reaches its midpoint. A lower IC50 goes with inhibition by little substance. Take `CC(C)Cc1cn(-c2nc(-c3nc4ccccc4[nH]3)cs2)c2cc(Br)ccc12` [Example 38, 2-{2-[6-Bromo-3-isobutyl-1H-indol-1-yl]-1,3-thiazol-4-yl}-1H-benzimidazole hydrochloride]: at human EP1 receptor [1], the IC50 was ≤ 100 nM. The Ki at human EP1 receptor [2] is ≤ 100 nM.
On to `CC(C)Cc1cn(-c2nc(-c3nc4ncccc4[nH]3)cs2)c2cc(Cl)ccc12` [Example 42, 2-{2-[6-Chloro-3-isobutyl-1H-indol-1-yl]-1,3-thiazol-4-yl}-1H-imidazo[4,5-b]pyridine hydrochloride], for which the IC50 on human EP1 receptor [1] is ≤ 100 nM.
Take `CC(C)Cc1cn(-c2nc(C(=O)NCCCO)cs2)c2cc(Cl)ccc12` [Example 26, 2-[6-Chloro-3-isobutyl-1H-indol-1-yl]-N-(3-hydroxypropyl)-1,3-thiazole-4-carboxamide]: the Ki on human EP1 receptor [2] is ≤ 100 nM.
In the case of `CC(C)Cc1cn(-c2nc(C(=O)Nc3ccc(CO)cc3)cs2)c2cc(Br)ccc12` [Example 12, 2-[6-Bromo-3-isobutyl-1H-indol-1-yl]-N-[4-(hydroxymethyl)phenyl]-1,3-thiazole-4-carboxamide], the IC50 on human EP1 receptor [1] was ≤ 100 nM. Moreover, the Ki on human EP1 receptor [2] was ≤ 100 nM.
Consider `CC(C)Cc1cn(-c2nc(C(=O)Nc3ccc(F)cc3)cs2)c2cc(Cl)ccc12` [Example 29, 2-[6-Chloro-3-isobutyl-1H-indol-1-yl]-N-(4-fluorophenyl)-1,3-thiazole-4-carboxamide], for which, on human EP1 receptor [2], the Ki is ≤ 100 nM.
As for `CC(C)Cc1cn(Cc2nc(-c3nc4ccccc4[nH]3)cs2)c2cc(Cl)ccc12` [Example 40, 2-(2-{[6-Chloro-3-isobutyl-1H-indol-1-yl]methyl}-1,3-thiazol-4-yl)-1H-benzimidazole hydrochloride], the IC50 at human EP1 receptor [1] is ≤ 100 nM. Moreover, at human EP1 receptor [2], the Ki was ≤ 100 nM.
On to `CC(C)Cc1cn(Cc2nc(C(N)=O)cs2)c2cc(Cl)ccc12` [Example 34, 2-{[6-Chloro-3-isobutyl-1H-indol-1-yl]methyl}-1,3-thiazole-4-carboxamide], for which the Ki at human EP1 receptor [2] is ≤ 100 nM.
Turning to `CC(C)Cc1cn(-c2nc(C(=O)Nc3ccccc3CO)cs2)c2cc(Cl)ccc12` [Example 20, 2-[6-Chloro-3-isobutyl-1H-indol-1-yl]-N-[2-(hydroxymethyl)phenyl]-1,3-thiazole-4-carboxamide], the IC50 on human EP1 receptor [1] is ≤ 100 nM. In addition, on human EP1 receptor [2], the Ki was ≤ 100 nM.
On to `CC(C)(C)CCc1cn(-c2nc(-c3nc4ccccc4[nH]3)cs2)c2cc(Cl)ccc12` [Example 37, 2-{2-[6-Chloro-3-(3,3-dimethylbutyl)-1H-indol-1-yl]-1,3-thiazol-4-yl}-1H-benzimidazole hydrochloride], for which, on human EP1 receptor [1], the 50% inhibitory concentration (IC50) was ≤ 100 nM.
Turning to `CC(C)Cc1cn(-c2nc(C(=O)Nc3ccccn3)cs2)c2cc(Cl)ccc12` [Example 27, 2-[6-Chloro-3-isobutyl-1H-indol-1-yl]-N-2-pyridinyl-1,3-thiazole-4-carboxamide], at human EP1 receptor [2], the Ki is ≤ 100 nM.
In the case of `CC(C)Cc1cn(-c2nc(NC(=O)c3c(F)cccc3F)cs2)c2cc(Cl)ccc12` [Example 5, N-[2-(6-Chloro-3-isobutyl-1H-indol-1-yl)-1,3-thiazol-4-yl]-2,6-difluorobenzamide], the Ki on human EP1 receptor [2] was ≤ 100 nM.
`CC(C)Cc1cn(-c2nc(-c3nc4cnccc4[nH]3)cs2)c2cc(Cl)ccc12` [Example 43, 2-{2-[6-Chloro-3-isobutyl-1H-indol-1-yl]-1,3-thiazol-4-yl}-1H-imidazo[4,5-c]pyridine hydrochloride]: the half-maximal inhibitory concentration (IC50) at human EP1 receptor [1] was ≤ 100 nM. At human EP1 receptor [2], the Ki is ≤ 100 nM.
In the case of `CC(C)Cc1cn(-c2nc(C(=O)N3CCCC3)cs2)c2cc(Cl)ccc12` [Example 11, 6-Chloro-3-isobutyl-1-[4-(1-pyrrolidinylcarbonyl)-1,3-thiazol-2-yl]-1H-indole], at human EP1 receptor [2], the Ki is ≤ 100 nM.
With `CC(C)Cc1cn(-c2nc(-c3nc4ccccc4[nH]3)cs2)c2cc(Cl)ccc12` [Example 35, 2-{2-[6-Chloro-3-isobutyl-1H-indol-1-yl]-1,3-thiazol-4-yl}-1H-benzimidazole hydrochloride], the IC50 at human EP1 receptor [1] was ≤ 100 nM. Further, the Ki at human EP1 receptor [2] is ≤ 100 nM.
As to `CC(C)Cc1nn(-c2nc(-c3nc4ccccc4[nH]3)cs2)c2cc(Cl)ccc12` [Example 39, 1-[4-(1H-Benzimidazol-2-yl)-1,3-thiazol-2-yl]-6-chloro-3-isobutyl-1H-indazole hydrochloride], on human EP1 receptor [1], the IC50 was ≤ 100 nM.
Still for that read-out and setting: next, `CC(C)Cc1cn(-c2nc(NC(=O)C3CCCC3)cs2)c2cc(Cl)ccc12` [Example 3, N-{2-[6-Chloro-3-isobutyl-1H-indol-1-yl]-1,3-thiazol-4-yl}cyclopentanecarboxamide]: ≤ 100 nM.
On to `CC(C)Cc1cn(-c2nc(-c3nc(-c4ccccc4)c[nH]3)cs2)c2cc(Cl)ccc12` [Example 52, 6-Chloro-3-isobutyl-1-[4-(4-phenyl-1H-imidazol-2-yl)-1,3-thiazol-2-yl]-1H-indole], for which the Ki on human EP1 receptor [2] was ≤ 100 nM.
As to `CC(C)Cc1cn(-c2nc(-c3ncc[nH]3)cs2)c2cc(Cl)ccc12` [Example 47, 6-Chloro-1-[4-(1H-imidazol-2-yl)-1,3-thiazol-2-yl]-3-isobutyl-1H-indole], the IC50 at human EP1 receptor [1] is ≤ 100 nM.
In the case of `CC(C)Cc1cn(-c2nc(C(N)=O)cs2)c2cc(Br)ccc12` [Example 32, 2-[6-Bromo-3-isobutyl-1H-indol-1-yl]-1,3-thiazole-4-carboxamide], the Ki at human EP1 receptor [2] was ≤ 100 nM.
Take `CC(C)Cc1cn(-c2nc(NC(=O)C(C)(C)C)cs2)c2cc(Cl)ccc12` [Example 4, N-{2-[6-Chloro-3-isobutyl-1H-indoi-1-yl]-1,3-thiazol-4-yl}-2,2-dimethylpropanamide]: at human EP1 receptor [1], the concentration for half-maximal inhibition (IC50) is ≤ 100 nM.
As to `CC(C)c1cn(-c2nc(C(=O)Nc3ccccc3N)cs2)c2cc(Cl)ccc12` [Example 13, N-(2-Aminophenyl)-2-[6-chloro-3-isopropyl-1H-indol-1-yl]-1,3-thiazole-4-carboxamide], the half-inhibitory concentration (IC50) at human EP1 receptor [1] was ≤ 100 nM.
Take `CC(C)Cc1cn(-c2nc(C(=O)Nc3cccc(CO)c3)cs2)c2cc(Cl)ccc12` [Example 24, 2-[6-Chloro-3-isobutyl-1H-indol-1-yl]-N-[3-indol-1-yl]N-[3-(hydroxymethyl)phenyl]-1,3-thiazole-4-carboxamide]: the Ki at human EP1 receptor [2] was ≤ 100 nM.
The same measure, in the same setting: then `CC(C)Cc1cn(-c2nc(C(N)=O)cs2)c2cc(Cl)ccc12` [Example 30, 2-[6-Chloro-3-isobutyl-1H-indol-1-yl]-1,3-thiazole-4-carboxamide], with ≤ 100 nM.
For `CC(C)Cc1cn(-c2nc(C(=O)Nc3ccc(CO)cc3)cs2)c2cc(Cl)ccc12` [Example 21, 2-[6-Chloro-3-isobutyl-1H-indol-1-yl]-N-[4-(hydroxymethyl)phenyl]-1,3-thiazole-4-carboxamide], on human EP1 receptor [1], the IC50 is ≤ 100 nM.

The record behind these values is US20090298866A1, “Indole Compounds” (priority 2006, published 2009).
